No end group written: not given here.
Columns and labels:
[1] = system: MDA-MB-468 breast cancer cells; assay: Cell number after peptide treatment, MDA-MB-468; type: cell-based, human; conditions: 6 days, 0 μM to 50 μM; stock without BSA
Protocol: (§1) Replicate cultures of MDA-MB-468 breast cancer cells, A549 lung cancer cells and 293T transformed embryonic kidney cells were exposed to CP-DN-CEBPB or CP-DN-CEBPD, for 6 days at doses of 0 μM to 50 μM. […] Stock solutions of the peptides were prepared in buffer without added bovine serum albumin (BSA).

[2] = system: HCT116 cells; assay: Combination with gamma radiation, cell number, HCT116; type: cell-based; conditions: 2 Gy or 5 Gy; peptide 0.05, 0.5 or 5 μM one day later, 6 days; CI<1 indicates synergism
Protocol: Replicate cultures of T98G and HCT116 cells were exposed to 2 Gy or 5 Gy of gamma radiation. One day later, the cultures were treated with 0.05 μM, 0.5 μM, or 5 μM CP-dn-CEBPB and CP-dn-CEBPD peptides, maintained for 6 days, and then assessed for cell number. The bar graphs of FIGS. 24A (T98G, CP-dn-CEBPB), 24C (T98G, CP-dn-CEBPBD, 24E (HCT116, CP-dn-CEBPD), and 24G (HCT116, CP-dn-CEBPD) show relative cell numbers for each condition as compared to untreated controls. The line graphs of FIGS. 24B (T98G, CP-dn-CEBPB), 24D (T98G, CP-dn-CEBPBD, 24F (HCT116, CP-dn-CEBPB), and 24H (HCT116, CP-dn-CEBPD) show the response as normalized in each case so that 100 represents the relative number of surviving cells that received the indicated level of radiation treatment, but no peptide treatment. Calculated Combination Indexes (CI) are T98G, CI=0.61±0.05 for CP-dn-CEBPB, 0.68±0.07 for CP-dn-CEBPD; HCT116, 0.89±0.04 for CP-dn-CEBPB, 0.86±0.05 for CP-dn-CEBPD. CI=1 indicates additivity; CI<1 indicates synergism; CI>1 indicates antagonism.

[3] = system: A375 cells; assay: A375 subcutaneous tumors, 10 or 20 mg/kg study; type: in vivo, NCR nude mice; conditions: 10 or 20 mg/kg intraperitoneally; for tumor growth (calculated tumor volumes): to day 24
Protocol: A375 cells were subcutaneously implanted in the flanks of NCR nude mice. After tumors had formed, the animals were treated intraperitoneally with 10 or 20 mg/kg of CP-dn-CEBPB, CP-dn-CEBPD or vehicle as indicated in the schema shown in FIG. 37A. Animal weight was monitored (FIG. 37B). Tumor sizes were measured and volumes calculated on each day of injection. […] FIG. 37D compares calculated individual and mean tumor volumes for vehicle, CP-dn-CEBPB and CP-dn-CEBPD treated animals on day 24.

[4] = Solubility of peptide stock after dilution; type: physicochemical; conditions: 20 mM of each of arginine and glutamate added to peptide stock buffer
Protocol: In some implementations, the mixture of arg/glu may be added at a molarity of, or of about 5 mM, 10 mM, 15 mM, 20 mM, 25 mM, or 30 mM.

[5] = system: 293T transformed embryonic kidney cells; assay: Cell number after peptide treatment, 293T; type: cell-based; conditions: 6 days, 0 μM to 50 μM; stock without BSA
Protocol: as §1

[6] = system: T98G cells; assay: Colony forming activity in soft agar, T98G; type: cell-based; conditions: 6 days; doses 0.05, 0.5 and 5 μM
Protocol: T98G (FIG. 21A), MDA-MB 231 (FIG. 21B), and HCT116 (FIG. 21C) cells were exposed to CP-DN-CEBPB and CP-DN-CEBPD for 6 days at doses of 0.05 μM 0.5 μM, and 5 μM while growing in soft agar. Growth was inhibited by does as low as 0.5 μM. T98G (FIG. 21D), MDA-MB 231 (FIG. 21E), and HCT116 (FIG. 21F) cells were exposed to CP-DN-CEBPB and CP-DN-CEBPD for 6 days at doses of 0.05 μM 0.5 μM, and 5 μM while growing on culture plates. Growth was inhibited by does as low as 0.5 μM.

[7] = system: T98G glioblastoma cells; assay: Cell number (growth and survival) after peptide treatment, T98G; type: cell-based; conditions: for growth and survival of T98G cells, time course: 10 μM or 20 μM for 1-6 days; for growth and survival of T98G cells, time course / number of T98G cells / morphology, growth and survival of T98G cells: stock without BSA; for number of T98G cells: 6-7 days; for number of T98G cells / effect of BSA in stock buffer on potency in suppressing growth and survival: 0 μM to 50 μM; for morphology, growth and survival of T98G cells: 5 days, 10 or 20 μM (CP-DN-CEBPB), 3, 10, 20 or 50 μM (CP-DN-CEBPD); for effect of BSA in stock buffer on potency in suppressing growth and survival: 6 days, BSA 3 mg/ml in stock, 0.6 mg/ml in medium
Protocol: Replicate T98G glioblastoma cell cultures were exposed to dominant negative (DN) synthetic peptides having an N-terminal penetratin sequence followed by a CEBPB or CEBPD native leucine zipper sequence (CP-DN-CEBPB or CP-DN-CEBPD, respectively) for 5 days at final concentrations of 10 μM or 20 μM (CP-DN-CEBPB) or 3 μM, 10 μM, 20 μM or 50 μM (CP-DN-CEBPD). Stock solutions of the peptides were prepared in buffer without added bovine serum albumin (BSA).
Replicate T98G glioblastoma cell cultures were exposed to CP-DN-CEBPB or CP-DN-CEBPD, for 6-7 days at doses of 0 μM to 50 μM. […] Stock solutions of the peptides were prepared in buffer without added bovine serum albumin (BSA).
Replicate T98G cell cultures were exposed to CP-DN-CEBPB or CP-DN-CEBPD peptides (10 μM or 20 μM) for 1, 2, 3, 4, 5, or 6 days. […] Values shown in FIG. 7A and FIG. 7B represent means from 3 replicate cultures. Stock solutions of the peptides were prepared in buffer without added bovine serum albumin (BSA).
Four replicate cultures of T98G cells were treated for 6 days with a cell penetrating dominant negative CEBPB (CP-DN-CEBPB; FIG. 8A) or a cell penetrating dominant negative CEBPD (CP-DN-CEBPD; FIG. 8B) at doses of 0 μM to 50 μM, with or without bovine serum albumin (BSA). […] Concentration of BSA in the stock solution, when present, was 3 mg/ml. The final concentration of BSA in the cell culture medium was 0.6 mg/ml. Values represent means of determinations made on 4 replicate cultures for each condition.
Replicate cultures of HCT116, MDA-MB 231, MCF7, and T98G cells were exposed to a 50/50 by concentration mixture of CP-DN-CEBPB and CP-DN-CEBPD for 6 days at doses of 0 μM to 50 μM. Stock solutions of the peptides were prepared in buffer without added bovine serum albumin (BSA).
Replicate cultures of T98G, HCT116, MDA-MB 231, and MCF7 cells were exposed to CP-DN-CEBPB, CP-DN-CEBPD, or a CP-DN-CEBPD in which heptad repeat leucine residues were mutated to glycine residues for 6 days at doses of 0 μM to 50 μM. Stock solutions of the peptides were prepared in buffer without added bovine serum albumin (BSA).

Sequence	number of MDA-MB-468 cells [1]	Combination Index (CI) with gamma radiation [2]	side effects (animal weight monitored) [3]	tumor growth (calculated tumor volumes) [3]	solubility after dilution to the concentration applied to cultured LN229 cells [4]	number of 293T cells [5]	lowest dose at which growth was inhibited, soft agar [6] [µM]	growth and survival of T98G cells, time course [7]	number of T98G cells [7]	morphology, growth and survival of T98G cells [7]	effect of BSA in stock buffer on potency in suppressing growth and survival [7]
RQIKIWFQNRRMKWKKLVELSAENEKLHQRVEQLTRDLAGLRQFFK [CP-DN-CEBPD]	dose-dependent decrease in the number	0.86±0.05	no apparent side effects	suppressed tumor growth	maintained solubility	dose-dependent decrease in the number	0.5	decreased as compared to untreated control cells	dose-responsively decreased	dose-responsively affected the morphology, growth and survival	greatly increased the potency
RQIKIWFQNRRMKWKKLETQHKVLELTAENERLQKKVEQLSRELSTLRNLFKQL [CP-DN-CEBPB]	dose-dependent decrease in the number	0.89±0.04	no apparent side effects	suppressed tumor growth	maintained solubility	dose-dependent decrease in the number	0.5	decreased as compared to untreated control cells	dose-responsively decreased	dose-responsively affected the morphology, growth and survival	greatly increased the potency
